As a reminder, the EC50 is the concentration needed to bring the measured effect to its halfway point.

Each structure is given as a SMILES string.

Among the data in US7834030B2, “Phenyl-[1,2,4]-oxadiazol-5-one derivatives, pharmaceutical compositions and therapeutic use thereof” (Sanofi-Aventis, priority 2005, dated 2010) are EC50 values, retold here.

In the test the target is T1, human PPARdelta (Homo sapiens, UniProt Q03181).
T1 construct: human PPARdelta receptor (amino acids S139-Y441); expressed in transfected cells; plasmid pcDNA3
T1 sequence (Q03181 139-441): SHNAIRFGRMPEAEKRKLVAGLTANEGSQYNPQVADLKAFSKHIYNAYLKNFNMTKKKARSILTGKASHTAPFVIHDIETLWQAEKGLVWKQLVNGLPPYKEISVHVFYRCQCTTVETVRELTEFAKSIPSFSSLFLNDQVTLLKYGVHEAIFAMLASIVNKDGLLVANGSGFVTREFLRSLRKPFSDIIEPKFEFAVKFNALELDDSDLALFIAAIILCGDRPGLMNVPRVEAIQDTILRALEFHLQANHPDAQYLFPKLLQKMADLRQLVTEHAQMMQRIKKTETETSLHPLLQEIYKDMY
The test can be described thus: cellular PPARdelta assay (GAL4 luciferase reporter, stably transfected HEK cell line). It counts as cell-based. On the procedure:
The PPARalpha reporter cell line is cultivated to 80% confluence in DMEM (# 41965-039, Invitrogen) which is mixed with the following additions: 10% cs-FCS (fetal calf serum; #SH-30068.03, Hyclone), 0.5 mg/ml zeocin (#R250-01, Invitrogen), 0.5 mg/ml G418 (#10136-027, Invitrogen), 1% penicillin-streptomycin solution (#15140-122, Invitrogen) and 2 mM L-glutamine (#25030-024, Invitrogen). The cultivation takes place in standard cell culture bottles (# 353612, Becton Dickinson) in a cell culture incubator at 37° C. in the presence of 5% CO2. The 80%-confluent cells are washed once with 15 ml of PBS (#14190-094, Invitrogen), treated with 3 ml of trypsin solution (#25300-054, Invitrogen) at 37° C. for 2 min, taken up in 5 ml of the DMEM described and counted in a cell counter. After dilution to 500.000 cells/ml, 35,000 cells are seeded in each well of a 96 well microtiter plate with a clear plastic base (#3610, Corning Costar). The plates are incubated in the cell culture incubator at 37° C. and 5% CO2 for 24 h.
PPARalpha agonists to be tested are dissolved in DMSO in a concentration of 10 mM. This stock solution is diluted in DMEM (#41965-039, Invitrogen) which is mixed with 5% cs-FCS (#SH-30068.03, Hyclone), 2 mM L-glutamine (#25030-024, Invitrogen) and the previously described antibiotics (zeocin, G418, penicillin and streptomycin). Test substances are tested in 11 different concentrations in the range from 10 μM to 100 pM.
The medium of the PPARalpha reporter cell line seeded on day 1 is completely removed by aspiration, and the test substances diluted in medium are immediately added to the cells. The dilution and addition of the substances is carried out by a robot (Beckman FX). The final volume of the test substances diluted in medium is 100 μl per well of a 96 well microtiter plate. The DMSO concentration in the assay is less than 0.1% v/v in order to avoid cytotoxic effects of the solvent.
The PPARalpha reporter cells treated with the test substances are removed from the incubator, and the medium is aspirated off. The cells are lyzed by pipetting 50 μl of Bright Glo reagent (from Promega) into each well of a 96 well microtiter plate. After incubation at room temperature in the dark for 10 minutes, the microtiter plates are measured in the luminometer (Trilux from Wallac). The measuring time for each well of a microtiter plate is 1 sec.
The raw data from the luminometer are transferred into a Microsoft Excel file. Dose-effect plots and EC50 values of PPAR agonists are calculated using the XL.Fit program as specified by the manufacturer (IDBS). […] The compounds of the present invention of formula I activate the PPARalpha receptor.
The potency of substances which bind to human PPARdelta and activate it in an agonistic manner was analyzed using a stably transfected HEK cell line (HEK=human embryo kidney) which is referred to here as PPARdelta reporter cell line. In analogy to the assay described for PPARalpha, the PPARdelta reporter cell line also contains two genetic elements, a luciferase reporter element (pdeltaM-GAL4-Luc-Zeo) and a PPARdelta fusion protein (GR-GAL4-humanPPARdelta-LBD) which mediates expression of the luciferase reporter element depending on a PPARdelta ligand. The stably and constitutively expressed fusion protein GR-GAL4-humanPPARdelta-LBD binds in the cell nucleus of the PPARdelta reporter cell line via the GAL4 protein portion to the GAL4 DNA binding motifs 5′-upstream of the luciferase reporter element which is stably integrated in the genome of the cell line. There is only little expression of the luciferase reporter gene in the absence of a PPARdelta ligand if fatty acid-depleted fetal calf serum (cs-FCS) is used in the assay. PPARdelta ligands bind and activate the PPARdelta fusion protein and thereby stimulate expression of the luciferase reporter gene. The luciferase which is formed can be detected by means of chemiluminescence via an appropriate substrate. […]
`CC[C@@H](Oc1ccc(-c2noc(=O)[nH]2)c(OC(F)F)c1)c1sc(-c2ccc(C(F)(F)F)cc2)nc1CN1CCC(C(F)(F)F)CC1` [(+)-45, (+)-3-(2-Difluoromethoxy-4-{(R)-1-[2-(4-trifluoromethyl-phenyl)-4-(4-trifluoromethyl-piperidin-1-ylmethyl)-thiazol-5-yl]-propoxy}-phenyl)-4H-1,2,4-oxadiazol-5-one]: the EC50 stood at 0.3 nM.

Compound `Cc1nc(-c2ccc(C(F)(F)F)cc2)sc1C(Oc1ccc(-c2noc(=O)[nH]2)c(Cl)c1)C(F)(F)F` (racemic) [Example 20, 3-(2-Chloro-4-{2,2,2-trifluoro-1-[4-methyl-2-(4-trifluoromethyl-phenyl)-thiazol-5-yl]-ethoxy}-phenyl)-4H-[1,2,4]oxadiazol-5-one] had an EC50 of 1 nM.

Compound `CCC(Oc1ccc(-c2noc(=O)[nH]2)c(OC(F)F)c1)c1sc(-c2ccc(C(F)(F)F)cc2)nc1C` (racemic) [Example 37, 3-(2-Difluoromethoxy-4-{1-[4-methyl-2-(4-trifluoromethyl-phenyl)-thiazol-5-yl]-propoxy}-phenyl)-4H-1,2,4-oxadiazol-5-one] showed an EC50 of 0.5 nM.

With `CCC(Oc1ccc(-c2noc(=O)[nH]2)c(F)c1)c1sc(-c2ccc(C(F)(F)F)cc2)nc1C` (racemic) [Example 35, 3-(2-Fluoro-4-{1-[4-methyl-2-(4-trifluoromethyl-phenyl)-thiazol-5-yl]-propoxy}-phenyl)-4H-1,2,4-oxadiazol-5-one], the response was half-maximal at 4 nM (EC50).

The compound `CCC(Oc1ccc(-c2noc(=O)[nH]2)c(OCC(F)(F)F)c1)c1sc(-c2ccc(C(F)(F)F)cc2)nc1C` (racemic) [Example 48, 3-[4-{1-[4-Methyl-2-(4-trifluoromethyl-phenyl)-thiazol-5-yl]-propoxy}-2-(2,2,2-trifluoro-ethoxy)-phenyl]-4H-1,2,4-oxadiazol-5-one] displayed an EC50 of 1 nM.

With `CCC(Oc1ccc(-c2noc(=O)[nH]2)c(C2CC2)c1)c1sc(-c2ccc(C(F)(F)F)cc2)nc1C` (racemic) [Example 16, 3-(2-Cyclopropyl-4-{1-[4-methyl-2-(4-trifluoromethyl-Phenyl)-thiazol-5-yl]-propoxy}-phenyl)-4H-[1,2,4]oxadiazol-5-one], the concentration for a half-maximal effect (EC50) is 1 nM.

Take `Cc1nc(-c2ccc(C(F)(F)F)cc2)sc1C(OCc1ccc(-c2noc(=O)[nH]2)c(Cl)n1)C(F)(F)F` (racemic) [Example 27, 3-(2-Chloro-6-{2,2,2-trifluoro-1-[4-methyl-2-(4-trifluoromethyl-phenyl)-thiazol-5-yl]-ethoxymethyl}-pyridin-3-yl)-4H-[1,2,4]oxadiazol-5-one]: the EC50 was determined as 17 nM.

Take `CCCCC(Cc1ccc(-c2noc(=O)[nH]2)c(F)c1)c1sc(-c2ccc(C(F)(F)F)cc2)nc1C` (racemic) [Example 34, 3-(2-Fluoro-4-{2-[4-methyl-2-(4-trifluoromethyl-phenyl)-thiazol-5-yl]-hexyl}-phenyl)-4H-[1,2,4]oxadiazol-5-one]: a half-maximal response (EC50) required 1 nM.

In turn, `Cc1nc(-c2ccc(C(F)(F)F)cc2)sc1C(OCc1ccc(-c2noc(=O)[nH]2)c2cccnc12)C(F)(F)F` (racemic) [Example 25, 3-(8-{2,2,2-Trifluoro-1-[4-methyl-2-(4-trifluoromethyl-phenyl)-thiazol-5-yl]-ethoxymethyl}-quinolin-5-yl)-4H-[1,2,4]oxadiazol-5-one] yielded an EC50 of 3 nM.

On to `Cc1nc(-c2ccc(C(F)(F)F)cc2)sc1C(OCc1ccc(-c2noc(=O)[nH]2)cc1)C(F)(F)C1CC1` (racemic) [Example 32, 3-(4-{2-Cyclopropyl-2,2-difluoro-1-[4-methyl-2-(4-trifluoromethyl-phenyl)-thiazol-5-yl]-ethoxymethyl}-phenyl)-4H-[1,2,4]oxadiazol-5-one], for which the EC50 amounted to 127 nM.

`CCC(Oc1ccc(-c2noc(=O)[nH]2)c(OC)c1)c1sc(-c2ccc(C(F)(F)F)cc2)nc1CN1CCC(C(F)(F)F)CC1` (racemic) [Example 42, 3-(2-Methoxy-4-{1-[2-(4-trifluoromethyl-phenyl)-4-(4-trifluoromethyl-piperidin-1-ylmethyl)-thiazol-5-yl]-propoxy}-phenyl)-4H-1,2,4-oxadiazol-5-one] displayed an EC50 of 8 nM.

The compound `CC[C@@H](Oc1cc(OC)c(-c2noc(=O)[nH]2)cc1F)c1sc(-c2ccc(C(F)(F)F)cc2)nc1C` [(+)-40, (+)-3-(5-Fluoro-2-methoxy-4-{(R)-1-[4-methyl-2-(4-trifluoromethyl-phenyl)-thiazol-5-yl]-propoxy}-phenyl)-4H-1,2,4-oxadiazol-5-one] displayed an EC50 of 1 nM.

As for `Cc1nc(-c2ccc(C(F)(F)F)cc2)sc1C(OCc1ccc(-c2noc(=O)[nH]2)c(F)c1)C(F)(F)F` (racemic) [Example 22, 3-(2-Fluoro-4-{2,2,2-trifluoro-1-[4-methyl-2-(4-trifluoromethyl-phenyl)-thiazol-5-yl]-ethoxymethyl}-phenyl)-4H-[1,2,4]oxadiazol-5-one], the EC50 worked out at 17 nM.

`Cc1nc(-c2ccc(C(F)(F)F)cc2)sc1C(Cc1ccccn1)Oc1ccc(-c2noc(=O)[nH]2)c(Cl)c1` (racemic) [Example 10, 3-(2-Chloro-4-{1-[4-methyl-2-(4-trifluoromethyl-phenyl)-thiazol-5-yl]-2-pyridin-2-yl-ethoxy}-phenyl)-4H-[1,2,4]oxadiazol-5-one] registered an EC50 of 6 nM.

For the compound `CCC(Oc1ccc(-c2noc(=O)[nH]2)c(Cl)c1)c1sc(-c2ccc(C(F)(F)F)cc2)nc1C` (racemic) [Example 4, 3-(2-Chloro-4-{1-[4-methyl-2-(4-trifluoromethyl-phenyl)-thiazol-5-yl]-propoxy}-phenyl)-4H-[1,2,4]oxadiazol-5-one], the EC50 was 0.2 nM.
